Source: PMC10066050, “Antimicrobial peptides CS-piscidin-induced cell death involves activation of RIPK1/PARP, and modification with myristic acid enhances its stability and tumor-targeting capability” (Discover. Oncology, 2023)
Where no end group is shown, it is not given here.

Key:
OVCA429 cells = assay type: cell-based, human; details: 24 h
[1] = tested on: normal ovary epithelial cell IOSE80; experiment: CCK8 cell viability assay; assay type: cell-based; details: 24 h
Procedure: (§1) A2780, SKOV3, ID8, IOSE80, and HUVEC cells (2.0 × 10^3 per well) were seeded into 96-well plates in 100 μL culture medium. After 24 h of incubation, the medium was replaced with a medium containing various peptide concentrations. The cell viability after the peptide treatment was tested by CCK8 assay. Briefly, after 24 h treatment, 10 μL CCK8 was added to each well and incubated for 2 h. After incubation, the optical density (OD) at 450 nm was detected using a microplate reader. Cell viability was calculated using the formula: (%) = [D-D0]/[ D¯ -D0] × 100%. D was the OD value of the experimental group, D0 represented the OD value of the blank control group, while [ D¯ was the mean OD value of the control group.

[2] = tested on: human umbilical vein endothelial cells HUVEC; experiment: CCK8 cell viability assay; assay type: cell-based; details: 24 h
Procedure: as §1

ID8 cells = assay type: cell-based, mouse; details: 24 h
Procedure: as §1

ID8-Luc cells = experiment: Ovarian cancer peritoneal spread mouse model; assay type: in vivo; details: C57BL/6 mice, 5 mpk intraperitoneally every other day, 10 administrations; ascites volume after sacrifice
Procedure: To create luciferase heredity stable ID8 cells, the PL-luciferase plasmid (Addgene, 21,471) was packaged by co-transfecting it with DVPR and VSVG packing plasmids using PEI in HEK293T. The virus-containing solution was then collected and cell debris was removed through a 0.45 μm filter. After infection, the cells were selected by treating them with 1 μg/mL puromycin for 3 days to eliminate the uninfected ID8 cells. The expression of luciferase in the cells was then confirmed using the Bio-Lumi™ Firefly Luciferase Reporter Gene Assay Kit (RG042S, Beyotime, China).
The animal experiment followed the Declaration of Helsinki guidelines and was approved by the Guangdong Medical University Animal Ethical Committee (GDY2102330). 5-week-old female C57BL/6 mice were obtained from Yancheng biological company and housed in an SPF laboratory at 26 ℃ with free access to water and food. Mice were intraperitoneally injected with 5 × 10^6 ID8-Luc-puro cells resuspended in 200 μL PBS. […] Body weight was measured every 5 days. After treatment, mice were injected with pentobarbitone and D-luciferin, and the luminescence signals were observed within 15 min using the live imaging system (In-vivo Xtreme, Bruker, USA). The fluorescence intensity was normalized and analyzed by Bruker MI SE software.

SKOV3 cells = assay type: cell-based, human; details: 24 h
Procedure: as §1

A2780 cells = assay type: cell-based, human; details: 24 h
Procedure: as §1

## FFKRLRNKFRLMRQAWKDYR [CS-piscidin]
OVCA429 cells
  IC50: 27.4 ± 1.16 µM
[1]
  IC50: 35.2 ± 3.14 µM
[2]
  IC50: 14.3 ± 3.03 µM
ID8 cells
  IC50: 19.8 ± 0.836 µM
ID8-Luc cells
  ascites / cytotoxicity to normal cells in vivo: still produced ascites
SKOV3 cells
  IC50: 37.4 ± 5.09 µM
A2780 cells
  IC50: 9.44 ± 0.666 µM
